The target in the first experiment is T1, Substance-K receptor (Homo sapiens, UniProt P21452). Further: in other assays of this panel Not Active means under 50% inhibition at 10 µM.
T1 sequence (P21452 whole entry): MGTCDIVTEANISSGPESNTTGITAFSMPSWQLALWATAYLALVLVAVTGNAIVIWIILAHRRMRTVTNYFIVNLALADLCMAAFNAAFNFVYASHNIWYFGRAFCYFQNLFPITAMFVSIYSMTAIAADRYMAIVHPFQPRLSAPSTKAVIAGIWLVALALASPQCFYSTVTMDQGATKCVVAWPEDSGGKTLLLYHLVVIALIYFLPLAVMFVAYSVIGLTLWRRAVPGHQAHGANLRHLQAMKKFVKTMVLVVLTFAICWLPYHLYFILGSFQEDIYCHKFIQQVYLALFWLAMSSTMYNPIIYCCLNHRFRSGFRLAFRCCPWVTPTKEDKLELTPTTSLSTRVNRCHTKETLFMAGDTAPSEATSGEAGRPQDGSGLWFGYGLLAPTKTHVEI
Assay: not given
To be noted: cho. The experiment is classed as cell membranes, CHO, Membrane.
Chain of Adenosine receptor A2a (P29274 whole entry): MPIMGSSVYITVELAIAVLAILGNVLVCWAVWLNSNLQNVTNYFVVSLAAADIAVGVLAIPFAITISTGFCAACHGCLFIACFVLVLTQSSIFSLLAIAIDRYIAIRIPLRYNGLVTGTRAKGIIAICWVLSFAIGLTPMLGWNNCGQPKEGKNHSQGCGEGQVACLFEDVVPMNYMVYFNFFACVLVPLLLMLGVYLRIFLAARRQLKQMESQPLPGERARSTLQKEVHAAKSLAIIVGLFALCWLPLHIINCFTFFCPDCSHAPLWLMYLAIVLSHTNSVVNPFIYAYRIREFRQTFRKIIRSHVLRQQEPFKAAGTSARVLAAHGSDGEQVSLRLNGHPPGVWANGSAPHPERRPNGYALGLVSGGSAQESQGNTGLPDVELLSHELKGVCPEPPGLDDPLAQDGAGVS
As for `O=C1CCc2cc(OCCCCc3nnnn3C3CCCCC3)ccc2N1` [CILOSTAZOL], the IC50 entry is recorded as “Not Active”.

`CC(C)(S)[C@@H](N)C(=O)O` [PENICILLAMINE]: the IC50 entry is reported as “Not Active”.

Take `O=C(O)c1cn(C2CC2)c2cc(N3CCNCC3)c(F)cc2c1=O` [CIPROFLOXACIN]: the IC50 result is reported as “Not Active”.

System in the next experiment: not listed separately
Nature of the experiment: DRUGMATRIX: Nicotinic Acetylcholine radioligand binding (ligand: [125I] Epibatidine). It is filed as cell membranes, Membrane. The note with it: imr-32; Not Active = under 50% inhibition at 10 µM.
With `O=C1CCc2cc(OCCCCc3nnnn3C3CCCCC3)ccc2N1` [CILOSTAZOL], the IC50 result is reported as “Not Active” and the Ki entry is on record as “Not Active”.

As for `CC(C)(S)[C@@H](N)C(=O)O` [PENICILLAMINE], the IC50 result is given as “Not Active” and the Ki result is reported as “Not Active”.

In the case of `O=C(O)c1cn(C2CC2)c2cc(N3CCNCC3)c(F)cc2c1=O` [CIPROFLOXACIN], the IC50 result is recorded as “Not Active” and the Ki entry is recorded as “Not Active”.

System in the next experiment: not listed separately
Kind of experiment: DRUGMATRIX: GABAA, Muscimol, Central radioligand binding (ligand: [3H] Muscimol). It is filed as cell membranes, Rattus norvegicus, Wistar, Brain, Membrane. To be noted: Not Active = under 50% inhibition at 10 µM.
Consider `O=C1CCc2cc(OCCCCc3nnnn3C3CCCCC3)ccc2N1` [CILOSTAZOL], for which the IC50 result was “Not Active” and the Ki entry is listed as “Not Active”.

`CC(C)(S)[C@@H](N)C(=O)O` [PENICILLAMINE]: the IC50 result is given as “Not Active” and the Ki result is given as “Not Active”.

For `O=C(O)c1cn(C2CC2)c2cc(N3CCNCC3)c(F)cc2c1=O` [CIPROFLOXACIN], the IC50 result was “Not Active” and the Ki entry is given as “Not Active”.

For a further experiment, the target named is C-C chemokine receptor type 5 (Homo sapiens, UniProt P51681). Further: in other assays of this panel Not Active means under 50% inhibition at 10 µM.
Chain of C-C chemokine receptor type 5 (P51681 whole entry): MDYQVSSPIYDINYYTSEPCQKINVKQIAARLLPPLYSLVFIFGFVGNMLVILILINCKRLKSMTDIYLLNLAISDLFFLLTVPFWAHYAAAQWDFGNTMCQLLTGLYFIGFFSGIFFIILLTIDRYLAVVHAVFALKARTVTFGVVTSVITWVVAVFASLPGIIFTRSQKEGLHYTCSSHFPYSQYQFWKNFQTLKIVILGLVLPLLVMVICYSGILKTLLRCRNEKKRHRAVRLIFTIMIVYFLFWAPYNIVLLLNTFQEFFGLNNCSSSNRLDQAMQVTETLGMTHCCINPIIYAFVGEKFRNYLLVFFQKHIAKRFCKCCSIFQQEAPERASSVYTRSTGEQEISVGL
Assay: not given
The experiment is classed as cell membranes, Membrane. To be noted: hek293.
For the molecule `O=C1CCc2cc(OCCCCc3nnnn3C3CCCCC3)ccc2N1` [CILOSTAZOL], the IC50 entry was “Not Active”.

As to `CC(C)(S)[C@@H](N)C(=O)O` [PENICILLAMINE], the IC50 entry is “Not Active”.

Take `O=C(O)c1cn(C2CC2)c2cc(N3CCNCC3)c(F)cc2c1=O` [CIPROFLOXACIN]: the IC50 result is listed as “Not Active”.

The target of the next experiment is Mitogen-activated protein kinase 3 (Homo sapiens, UniProt P27361). Kind of experiment: DRUGMATRIX: Protein Serine/Threonine Kinase, ERK1 enzyme inhibition (substrate: Myelin Basic Protein). The note with it: Not Active = under 50% inhibition at 10 µM. Set-up: species or system Escherichia coli.
Chain of Mitogen-activated protein kinase 3 (P27361 whole entry): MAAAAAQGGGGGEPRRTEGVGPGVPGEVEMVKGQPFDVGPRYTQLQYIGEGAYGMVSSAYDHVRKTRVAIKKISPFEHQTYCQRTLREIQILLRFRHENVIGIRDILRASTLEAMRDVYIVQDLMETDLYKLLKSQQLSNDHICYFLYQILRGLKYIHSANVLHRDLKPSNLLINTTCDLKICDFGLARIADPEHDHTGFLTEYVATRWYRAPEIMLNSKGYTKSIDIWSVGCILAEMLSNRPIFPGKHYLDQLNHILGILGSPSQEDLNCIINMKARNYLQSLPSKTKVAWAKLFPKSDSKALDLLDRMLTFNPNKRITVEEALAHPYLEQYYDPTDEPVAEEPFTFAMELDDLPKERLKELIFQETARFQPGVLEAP
`O=C1CCc2cc(OCCCCc3nnnn3C3CCCCC3)ccc2N1` [CILOSTAZOL]: the IC50 entry was “Not Active”.

For `CC(C)(S)[C@@H](N)C(=O)O` [PENICILLAMINE], the IC50 result was “Not Active”.

As for `O=C(O)c1cn(C2CC2)c2cc(N3CCNCC3)c(F)cc2c1=O` [CIPROFLOXACIN], the IC50 result is recorded as “Not Active”.

The target of another experiment is Substance-P receptor (Homo sapiens, UniProt P25103). Further: in other assays of this panel Not Active means under 50% inhibition at 10 µM.
Chain of Substance-P receptor (P25103 whole entry): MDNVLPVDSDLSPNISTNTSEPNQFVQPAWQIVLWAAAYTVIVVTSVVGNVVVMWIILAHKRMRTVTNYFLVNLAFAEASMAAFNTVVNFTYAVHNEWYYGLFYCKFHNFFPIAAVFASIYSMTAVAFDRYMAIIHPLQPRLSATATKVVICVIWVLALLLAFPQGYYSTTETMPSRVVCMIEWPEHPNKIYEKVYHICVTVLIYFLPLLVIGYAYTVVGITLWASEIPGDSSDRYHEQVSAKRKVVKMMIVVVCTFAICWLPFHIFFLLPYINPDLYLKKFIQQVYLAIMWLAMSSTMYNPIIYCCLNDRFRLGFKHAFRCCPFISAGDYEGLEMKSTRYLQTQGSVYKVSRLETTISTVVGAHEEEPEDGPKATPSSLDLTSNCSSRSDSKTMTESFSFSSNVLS
Assay: not given
It is filed as cell membranes, CHO, Membrane. The note with it: cho.
As for `O=C1CCc2cc(OCCCCc3nnnn3C3CCCCC3)ccc2N1` [CILOSTAZOL], the IC50 result was “Not Active”.

`CC(C)(S)[C@@H](N)C(=O)O` [PENICILLAMINE]: the IC50 result is “Not Active”.

On to `O=C(O)c1cn(C2CC2)c2cc(N3CCNCC3)c(F)cc2c1=O` [CIPROFLOXACIN], for which the IC50 result is “Not Active”.

The target in the next experiment is T2, Calcitonin receptor (Homo sapiens, UniProt P30988). Further: in other assays of this panel Not Active means under 50% inhibition at 10 µM.
T2 sequence (P30988 whole entry): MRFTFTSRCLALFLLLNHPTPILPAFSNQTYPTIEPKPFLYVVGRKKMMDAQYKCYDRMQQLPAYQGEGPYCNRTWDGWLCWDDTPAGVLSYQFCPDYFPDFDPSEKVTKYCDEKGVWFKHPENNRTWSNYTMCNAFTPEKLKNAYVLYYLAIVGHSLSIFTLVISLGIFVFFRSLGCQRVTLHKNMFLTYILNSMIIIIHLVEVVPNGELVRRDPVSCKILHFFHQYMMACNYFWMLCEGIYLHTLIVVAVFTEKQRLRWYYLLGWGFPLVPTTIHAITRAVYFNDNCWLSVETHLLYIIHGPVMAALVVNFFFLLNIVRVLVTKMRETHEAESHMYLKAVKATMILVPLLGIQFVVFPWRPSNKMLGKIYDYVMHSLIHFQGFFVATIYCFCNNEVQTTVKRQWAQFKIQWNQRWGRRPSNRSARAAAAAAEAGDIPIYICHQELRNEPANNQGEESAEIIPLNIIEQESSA
Assay: not given
The note with it: t47d. It is filed as cell membranes, Membrane.
Regarding `O=C1CCc2cc(OCCCCc3nnnn3C3CCCCC3)ccc2N1` [CILOSTAZOL], the IC50 entry is “Not Active”.

`CC(C)(S)[C@@H](N)C(=O)O` [PENICILLAMINE]: the IC50 entry was “Not Active”.

Regarding `O=C(O)c1cn(C2CC2)c2cc(N3CCNCC3)c(F)cc2c1=O` [CIPROFLOXACIN], the IC50 entry was “Not Active”.

System in a further experiment: not listed separately
Kind of experiment: DRUGMATRIX: Interleukin IL-1 radioligand binding (ligand: [125I] interleukin 1beta). It is filed as cell membranes, Membrane. To be noted: nih3t3; Not Active = under 50% inhibition at 10 µM.
Turning to `O=C1CCc2cc(OCCCCc3nnnn3C3CCCCC3)ccc2N1` [CILOSTAZOL], the IC50 result is “Not Active” and the Ki entry is listed as “Not Active”.

As to `CC(C)(S)[C@@H](N)C(=O)O` [PENICILLAMINE], the IC50 result is “Not Active” and the Ki entry is given as “Not Active”.

As for `O=C(O)c1cn(C2CC2)c2cc(N3CCNCC3)c(F)cc2c1=O` [CIPROFLOXACIN], the IC50 entry was “Not Active” and the Ki entry is on record as “Not Active”.

A further experiment has as its target Adenosine receptor A2a (Homo sapiens, UniProt P29274). Nature of the experiment: DRUGMATRIX: Adenosine A2A radioligand binding (ligand: […]). The note with it: hek293; Not Active = under 50% inhibition at 10 µM. The experiment is classed as cell membranes, HEK293, Membrane.
For `O=C1CCc2cc(OCCCCc3nnnn3C3CCCCC3)ccc2N1` [CILOSTAZOL], the IC50 result is “Not Active”.

On to `CC(C)(S)[C@@H](N)C(=O)O` [PENICILLAMINE], for which the IC50 result is listed as “Not Active”.

As for `O=C(O)c1cn(C2CC2)c2cc(N3CCNCC3)c(F)cc2c1=O` [CIPROFLOXACIN], the IC50 entry is recorded as “Not Active”.

The target in another experiment is T3, Angiotensin-converting enzyme (Oryctolagus cuniculus, UniProt P12822).
T3 sequence (P12822 whole entry): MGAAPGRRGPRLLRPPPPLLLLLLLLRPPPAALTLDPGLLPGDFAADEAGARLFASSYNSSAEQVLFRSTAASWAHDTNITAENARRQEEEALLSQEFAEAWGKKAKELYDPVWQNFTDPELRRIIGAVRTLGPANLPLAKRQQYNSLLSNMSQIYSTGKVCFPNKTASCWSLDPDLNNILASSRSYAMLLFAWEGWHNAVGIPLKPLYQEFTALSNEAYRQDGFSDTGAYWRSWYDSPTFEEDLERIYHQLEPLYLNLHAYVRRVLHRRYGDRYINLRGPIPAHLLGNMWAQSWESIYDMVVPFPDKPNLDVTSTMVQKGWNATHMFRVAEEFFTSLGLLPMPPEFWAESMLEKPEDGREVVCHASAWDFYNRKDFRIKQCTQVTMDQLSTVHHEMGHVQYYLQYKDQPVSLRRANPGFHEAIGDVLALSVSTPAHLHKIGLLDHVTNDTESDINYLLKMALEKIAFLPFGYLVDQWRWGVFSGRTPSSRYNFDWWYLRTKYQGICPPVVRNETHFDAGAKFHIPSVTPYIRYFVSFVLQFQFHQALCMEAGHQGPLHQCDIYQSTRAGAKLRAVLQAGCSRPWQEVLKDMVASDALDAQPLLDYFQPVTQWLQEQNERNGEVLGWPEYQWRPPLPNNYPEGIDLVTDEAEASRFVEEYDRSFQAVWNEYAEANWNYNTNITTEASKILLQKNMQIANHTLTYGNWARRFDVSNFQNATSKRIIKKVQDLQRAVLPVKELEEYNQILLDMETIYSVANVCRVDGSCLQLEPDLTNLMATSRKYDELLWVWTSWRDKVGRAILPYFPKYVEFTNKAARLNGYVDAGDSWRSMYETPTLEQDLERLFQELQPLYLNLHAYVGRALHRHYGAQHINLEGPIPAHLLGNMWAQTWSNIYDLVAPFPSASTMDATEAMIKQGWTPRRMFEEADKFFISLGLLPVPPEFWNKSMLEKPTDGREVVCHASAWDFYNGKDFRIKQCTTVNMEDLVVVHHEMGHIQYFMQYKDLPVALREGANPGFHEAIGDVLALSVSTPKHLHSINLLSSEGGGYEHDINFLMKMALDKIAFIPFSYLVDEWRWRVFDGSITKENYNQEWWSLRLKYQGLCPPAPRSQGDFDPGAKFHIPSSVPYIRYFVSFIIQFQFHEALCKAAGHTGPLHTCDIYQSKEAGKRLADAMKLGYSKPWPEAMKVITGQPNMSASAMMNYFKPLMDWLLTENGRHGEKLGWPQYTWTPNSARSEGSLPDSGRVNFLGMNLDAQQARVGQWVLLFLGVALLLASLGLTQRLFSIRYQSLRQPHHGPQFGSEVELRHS
Nature of the experiment: biochemical. It is filed as tissue-based, Lung.
Settings: not given
On to `O=C1CCc2cc(OCCCCc3nnnn3C3CCCCC3)ccc2N1` [CILOSTAZOL], for which the IC50 result is listed as “Not Active”.

As for `CC(C)(S)[C@@H](N)C(=O)O` [PENICILLAMINE], the IC50 entry is listed as “Not Active”.

For the molecule `O=C(O)c1cn(C2CC2)c2cc(N3CCNCC3)c(F)cc2c1=O` [CIPROFLOXACIN], the IC50 result is on record as “Not Active”.

Another experiment addresses Glycine receptor (Rattus norvegicus, UniProt P22771+P24524+P07727+P20781).
Assay: not given
Settings: not given
It is filed as cell membranes, Wistar, Spinal cord, Membrane.
Consider `O=C1CCc2cc(OCCCCc3nnnn3C3CCCCC3)ccc2N1` [CILOSTAZOL], for which the IC50 entry is on record as “Not Active”.

On to `CC(C)(S)[C@@H](N)C(=O)O` [PENICILLAMINE], for which the IC50 result was “Not Active”.

With `O=C(O)c1cn(C2CC2)c2cc(N3CCNCC3)c(F)cc2c1=O` [CIPROFLOXACIN], the IC50 result is on record as “Not Active”.

System in a further experiment: not listed separately
Nature of the experiment: DRUGMATRIX: Potassium Channel [KATP] radioligand binding (ligand: [3H] Glyburide). The note with it: hit-t15; Not Active = under 50% inhibition at 10 µM. It is filed as cell membranes, Membrane.
Take `O=C1CCc2cc(OCCCCc3nnnn3C3CCCCC3)ccc2N1` [CILOSTAZOL]: the IC50 result is given as “Not Active” and the Ki entry was “Not Active”.

As to `CC(C)(S)[C@@H](N)C(=O)O` [PENICILLAMINE], the IC50 entry is “Not Active” and the Ki entry was “Not Active”.

As to `O=C(O)c1cn(C2CC2)c2cc(N3CCNCC3)c(F)cc2c1=O` [CIPROFLOXACIN], the IC50 result is reported as “Not Active” and the Ki entry was “Not Active”.

For the origin of these results see ChEMBL document CHEMBL1909046, “DrugMatrix in vitro pharmacology data”.
